Source: ChEMBL document CHEMBL1275457, “Postantibiotic effects and bactericidal activities of levofloxacin and gatifloxacin at concentrations simulating those of topical ophthalmic administration against fluoroquinolone-resistant and fluoroquinolone-sensitive methicillin-resistant Staphylococcus aureus strains” (2008)
Converted amounts (≈) assume the structure as drawn. The source made the active and inactive calls. The calls are words filed in the database; no cut-off is given here.

Columns and labels:
Staphylococcus aureus [1] = test: Antimicrobial activity against levofloxacin-sensitive and methicillin-resistant Staphylococcus aureus JCSC 6770 by broth microdilution method; type: functional
Staphylococcus aureus [2] = test: Antimicrobial activity against high level levofloxacin and methicillin-resistant Staphylococcus aureus JCSC 6763 expressing gyrA Ser84Leu/Ser85Pro and grlA Ser80Phe/Glu84Lys mutants by broth microdilution method; type: functional
Staphylococcus aureus [3] = test: Antimicrobial activity against levofloxacin-sensitive and methicillin-resistant Staphylococcus aureus JCSC 6769 by broth microdilution method; type: functional
Staphylococcus aureus [4] = test: Antimicrobial activity against high level levofloxacin and methicillin-resistant Staphylococcus aureus JCSC 6765 expressing gyrA Ser84Leu, norA T389C and grlA Ser80Phe/Glu84Lys mutants by broth microdilution method; type: functional
Staphylococcus aureus [5] = test: Antimicrobial activity against low level levofloxacin and methicillin-resistant Staphylococcus aureus JCSC 6766 expressing gyrA Glu84Lys and grlA Ser80Phe mutants by broth microdilution method; type: functional
Staphylococcus aureus [6] = test: Antimicrobial activity against low level levofloxacin and methicillin-resistant Staphylococcus aureus JCSC 6767 expressing gyrA Glu84Lys and grlA Ser80Phe mutants by broth microdilution method; type: functional
Staphylococcus aureus [7] = test: Antimicrobial activity against low level levofloxacin and methicillin-resistant Staphylococcus aureus JCSC 6768 expressing gyrA Glu84Lys and grlA Ser80Phe mutants by broth microdilution method; type: functional
Staphylococcus aureus [8] = test: Antimicrobial activity against high level levofloxacin and methicillin-resistant Staphylococcus aureus JCSC 6764 expressing gyrA Ser84Leu, gyrB Asp437Glu norA T389C and grlA Ser80Phe/Glu84Lys mutants by broth microdilution method; type: functional
Staphylococcus aureus [9] = test: Antimicrobial activity against levofloxacin-sensitive and methicillin-resistant Staphylococcus aureus JCSC 6822 harboring mutation in norA gene by broth microdilution method; type: functional
Staphylococcus aureus [10] = test: Bactericidal activity against levofloxacin-sensitive and methicillin-resistant Staphylococcus aureus at 16 times MIC after 24 hrs by time-kill assay; type: functional, organism-based
Staphylococcus aureus [11] = test: Bactericidal activity against low level levofloxacin and methicillin-resistant Staphylococcus aureus at 8 times MIC after 24 hrs by time-kill assay; type: functional, organism-based
Staphylococcus aureus [12] = test: Bactericidal activity against methicillin-resistant Staphylococcus aureus at 8 times MIC upto 60 mins by time-kill assay; type: functional, organism-based
Staphylococcus aureus [13] = test: Bactericidal activity against high level levofloxacin and methicillin-resistant Staphylococcus aureus at 4 times MIC after 24 hrs by time-kill assay; type: functional, organism-based
Staphylococcus aureus [14] = test: Bactericidal activity against low level levofloxacin and methicillin-resistant Staphylococcus aureus at 4 times MIC after 24 hrs by time-kill assay; type: functional, organism-based
Staphylococcus aureus [15] = test: Bactericidal activity against methicillin-resistant Staphylococcus aureus at 4 times MIC upto 60 mins by time-kill assay; type: functional, organism-based
Staphylococcus aureus [16] = test: Bactericidal activity against levofloxacin-sensitive and methicillin-resistant Staphylococcus aureus at 8 times MIC after 24 hrs by time-kill assay; type: functional, organism-based
Staphylococcus aureus [17] = test: Bactericidal activity against high level levofloxacin and methicillin-resistant Staphylococcus aureus at 8 times MIC after 24 hrs by time-kill assay; type: functional, organism-based
Staphylococcus aureus [18] = test: Bactericidal activity against low level levofloxacin and methicillin-resistant Staphylococcus aureus at 2048 ug/ml after 24 hrs by time-kill assay; type: functional, organism-based
Staphylococcus aureus [19] = test: Bactericidal activity against low level levofloxacin and methicillin-resistant Staphylococcus aureus at 16 times MIC after 24 hrs by time-kill assay; type: functional, organism-based
Staphylococcus aureus [20] = test: Bactericidal activity against high level levofloxacin and methicillin-resistant Staphylococcus aureus at 2048 ug/ml after 24 hrs by time-kill assay; type: functional, organism-based
Staphylococcus aureus [21] = test: Bactericidal activity against methicillin-resistant Staphylococcus aureus at 16 times MIC upto 60 mins by time-kill assay; type: functional, organism-based
Staphylococcus aureus [22] = test: Bactericidal activity against levofloxacin-sensitive and methicillin-resistant Staphylococcus aureus at 2048 ug/ml after 24 hrs by time-kill assay; type: functional, organism-based
Staphylococcus aureus [23] = test: Bactericidal activity against levofloxacin-sensitive and methicillin-resistant Staphylococcus aureus at 4 times MIC after 24 hrs by time-kill assay; type: functional, organism-based
Staphylococcus aureus [24] = test: Bactericidal activity against high level levofloxacin and methicillin-resistant Staphylococcus aureus at 16 times MIC after 24 hrs by time-kill assay; type: functional, organism-based
Staphylococcus aureus [25] = test: Bactericidal activity against low level levofloxacin and methicillin-resistant Staphylococcus aureus at 8 times MIC after 120 mins by time-kill assay; type: functional, organism-based
Staphylococcus aureus [26] = test: Bactericidal activity against low level levofloxacin and methicillin-resistant Staphylococcus aureus at 4 times MIC after 120 mins by time-kill assay; type: functional, organism-based
Staphylococcus aureus [27] = test: Bactericidal activity against low level levofloxacin and methicillin-resistant Staphylococcus aureus at 16 times MIC after 120 mins by time-kill assay; type: functional, organism-based

| Compound | MIC (Staphylococcus aureus [1]) [µg/mL] | MIC (Staphylococcus aureus [2]) [µg/mL] | MIC (Staphylococcus aureus [3]) [µg/mL] | MIC (Staphylococcus aureus [4]) [µg/mL] | MIC (Staphylococcus aureus [5]) [µg/mL] | MIC (Staphylococcus aureus [6]) [µg/mL] | MIC (Staphylococcus aureus [7]) [µg/mL] | MIC (Staphylococcus aureus [8]) [µg/mL] | MIC (Staphylococcus aureus [9]) [µg/mL] | Activity (Staphylococcus aureus [10]) | Activity (Staphylococcus aureus [11]) | Activity (Staphylococcus aureus [12]) | Activity (Staphylococcus aureus [13]) | Activity (Staphylococcus aureus [14]) | Activity (Staphylococcus aureus [15]) | Activity (Staphylococcus aureus [16]) | Activity (Staphylococcus aureus [17]) | Activity (Staphylococcus aureus [18]) | Activity (Staphylococcus aureus [19]) | Activity (Staphylococcus aureus [20]) | also measured |
| --- | --- | --- | --- | --- | --- | --- | --- | --- | --- | --- | --- | --- | --- | --- | --- | --- | --- | --- | --- | --- | --- |
| Cc1onc(-c2ccccc2)c1C(=O)N[C@@H]1C(=O)N2[C@@H]1SC(C)(C)[C@@H]2C(=O)O [OXACILLIN] | 256 (≈ 638 µM) | 512 (≈ 1280 µM) | 512 (≈ 1280 µM) | 256 (≈ 638 µM) | 512 (≈ 1280 µM) | 256 (≈ 638 µM) | 256 (≈ 638 µM) | 512 (≈ 1280 µM) | 128 (≈ 319 µM) | – | – | – | – | – | – | – | – | – | – | – | – |
| C[C@H]1COc2c(N3CCN(C)CC3)c(F)cc3c(=O)c(C(=O)O)cn1c23.C[C@H]1COc2c(N3CCN(C)CC3)c(F)cc3c(=O)c(C(=O)O)cn1c23.O [LEVOFLOXACIN] | 0.25 | 512 | 0.5 | 64 | 8 | 8 | 4 | 256 | 0.25 | Active | Active | inactive | Active | Active | inactive | Active | Active | Active | Active | Active | Activity (Staphylococcus aureus [21]): inactive; Activity (Staphylococcus aureus [22]): Active; Activity (Staphylococcus aureus [23]): Active; Activity (Staphylococcus aureus [24]): Active |
| COc1c(N2CCNC(C)C2)c(F)cc2c(=O)c(C(=O)O)cn(C3CC3)c12 (stereo not given) [GATIFLOXACIN] | 0.125 (≈ 0.333 µM) | 128 (≈ 341 µM) | 0.125 (≈ 0.333 µM) | 16 (≈ 42.6 µM) | 2 (≈ 5.33 µM) | 2 (≈ 5.33 µM) | 2 (≈ 5.33 µM) | 32 (≈ 85.2 µM) | 0.125 (≈ 0.333 µM) | Active | Active | inactive | Active | Active | inactive | Active | Active | Active | Active | Active | Activity (Staphylococcus aureus [25]): Active; Activity (Staphylococcus aureus [26]): Active; Activity (Staphylococcus aureus [27]): Active; Activity (Staphylococcus aureus [21]): inactive; Activity (Staphylococcus aureus [22]): Active; Activity (Staphylococcus aureus [23]): Active; Activity (Staphylococcus aureus [24]): Active |
